One may read the half-life as how long it takes for the measured level to halve. Lower therefore signals fast loss. A word on the inhibition: it is the share of the control response that was lost under treatment.

This note sets out measurements from ChEMBL document CHEMBL6087443, “3-Halo-3-nitro-aza/thioflavanones: DNMT inhibitors with a two-site binding mode in the hDNMT3A catalytic pocket” (Bioorg Med Chem, 2025).

SMILES strings stand for the structures. Activity calls are given as the source filed them. The rule behind the calls is not given here.

Data set [1] in a line: Stability of compound in DNMT methylation buffer by HPLC analysis. The data set is classed as physicochemical.
In data set [2] the target is DNA (cytosine-5)-methyltransferase 3A (Homo sapiens) (UniProt Q9Y6K1). Briefly: Inhibition of hDNMT3A-c using SAM and oligonucleotide with CpG site at 10 uM incubated for 2 hrs by fluorescence-based assay relative to control.
Data set [3] shares this target. Briefly: Inhibition of hDNMT3A-c using SAM and oligonucleotide with CpG site at 32 uM incubated for 2 hrs by fluorescence-based assay relative to control.
Data set [4] can be described thus: Stability of the compound in HEPES buffer incubated for 2 hrs by measuring inhibition of DNMT (unknown origin) at 32 uM by HPLC analysis. The format is physicochemical.
Data set [5] in a line: Stability of the compound in HEPES buffer incubated for 2 hrs by measuring inhibition of DNMT (unknown origin) at 10 uM by HPLC analysis. The format is physicochemical.
Data set [6] can be described thus: Stability of the compound at pH 5.3. The data set is classed as physicochemical. Particulars: buffer.

DNA (cytosine-5)-methyltransferase 3A (Homo sapiens), sequence (Q9Y6K1 whole entry, looked up): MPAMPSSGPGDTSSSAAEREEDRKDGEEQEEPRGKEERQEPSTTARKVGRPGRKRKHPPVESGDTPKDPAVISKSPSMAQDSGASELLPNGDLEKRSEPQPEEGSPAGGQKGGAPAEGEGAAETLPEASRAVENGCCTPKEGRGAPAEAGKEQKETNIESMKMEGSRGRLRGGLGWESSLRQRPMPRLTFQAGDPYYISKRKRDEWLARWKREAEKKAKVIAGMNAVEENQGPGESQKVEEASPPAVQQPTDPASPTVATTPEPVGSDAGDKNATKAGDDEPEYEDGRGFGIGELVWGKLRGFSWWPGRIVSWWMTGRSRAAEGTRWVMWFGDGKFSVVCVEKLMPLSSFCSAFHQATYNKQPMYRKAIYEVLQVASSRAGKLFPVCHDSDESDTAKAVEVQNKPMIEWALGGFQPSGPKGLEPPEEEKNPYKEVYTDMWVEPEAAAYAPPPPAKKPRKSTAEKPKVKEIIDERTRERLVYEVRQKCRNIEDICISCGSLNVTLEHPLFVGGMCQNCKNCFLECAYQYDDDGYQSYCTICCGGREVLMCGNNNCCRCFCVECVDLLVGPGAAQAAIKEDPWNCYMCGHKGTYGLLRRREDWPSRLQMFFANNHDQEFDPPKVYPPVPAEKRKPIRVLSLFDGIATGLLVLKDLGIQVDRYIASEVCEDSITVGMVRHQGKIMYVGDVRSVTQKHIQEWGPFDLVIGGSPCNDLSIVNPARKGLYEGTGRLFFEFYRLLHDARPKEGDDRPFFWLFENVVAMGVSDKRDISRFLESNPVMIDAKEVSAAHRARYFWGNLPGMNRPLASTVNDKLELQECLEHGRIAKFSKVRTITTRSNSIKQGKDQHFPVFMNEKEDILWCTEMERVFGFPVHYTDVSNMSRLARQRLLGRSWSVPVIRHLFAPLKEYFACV

`O=C1c2ccccc2S[C@@H](c2cccc(C(F)(F)F)c2)[C@@]1(Br)[N+](=O)[O-]` (relative stereo) had a half-life in data set [1] of 12 min. Further, the figures for the inhibition in data set [2] and in data set [3] were 35% and 63%, respectively.

Turning to `COc1cccc(C2Nc3ccccc3C(=O)C2[N+](=O)[O-])c1` (stereo unspecified), the inhibition entry in data set [2] and in data set [3] was “inactive” each time.

As for `O=C1c2ccccc2S[C@H](c2cccc([N+](=O)[O-])c2)[C@@]1(Br)[N+](=O)[O-]` (relative stereo), in data set [1], the half-life is 54 min. In addition, the inhibition in data set [2] was found to be 27%; in data set [3], 59%.

The compound `O=C1c2ccccc2NC(c2ccccc2)C1(Br)[N+](=O)[O-]` (racemic) showed a half-life in data set [1] of 18 min. Besides, the inhibition in data set [2] was found to be 55%; in data set [3], 89%.

As to `O=C1c2ccccc2NC(c2ccccc2)C1[N+](=O)[O-]` (stereo unspecified), the inhibition entry in data set [2] and in data set [3] was “inactive” each time.

The compound `O=C1c2ccccc2S[C@@H](c2ccccc2)[C@]1(Br)[N+](=O)[O-]` (relative stereo) had a half-life in data set [1] of 72 min. Besides, the inhibition amounted to 51% in data set [2] and 86% in data set [3].

In turn, `O=C1c2ccccc2S[C@@H](c2ccccc2)[C@@]1(Br)[N+](=O)[O-]` (relative stereo) gave a half-life in data set [1] of 12 min. The inhibition was 42% in data set [2] and 68% in data set [3].

In turn, `O=C1c2ccccc2S[C@@H](c2ccccc2F)[C@@]1(Br)[N+](=O)[O-]` (relative stereo) had a half-life in data set [1] of 66 min. Moreover, the inhibition in data set [2] amounted to 42%; in data set [3], 67%.

In data set [1], `O=C1c2ccccc2S[C@@H](c2ccccc2F)[C@]1(Br)[N+](=O)[O-]` (relative stereo) gave a half-life of 48 min. Further, the inhibition was found to be 32% in data set [2] and 67% in data set [3].

Consider `COc1cccc(C2Nc3ccccc3C(=O)C2(Br)[N+](=O)[O-])c1` (racemic), for which the Stability entry in data set [4] is reported as “Unstable”; in data set [5] it was “Unstable”; in data set [6], “Stable”. Further, the half-life in data set [1] was 42 min. The inhibition came out at 59% in data set [2] and 100% in data set [3].

For the compound `O=C1c2ccccc2S[C@@H](c2cccc(C(F)(F)F)c2)[C@]1(Br)[N+](=O)[O-]` (relative stereo), the half-life in data set [1] was 192 min. Also, the results for the inhibition in data set [2] and in data set [3] were 34% and 78%, respectively.

Consider `O=C1c2ccccc2O[C@@H](c2ccccc2)[C@]1(Br)[N+](=O)[O-]` (relative stereo), for which the inhibition in data set [2] was 69%; in data set [3], 92%.

`COc1cccc(C2Nc3ccccc3C(=O)C2(Cl)[N+](=O)[O-])c1` (racemic): the half-life in data set [1] was 138 min. For the same compound, the inhibition was found to be 42% in data set [2] and 56% in data set [3].

`O=C1c2ccccc2O[C@@H](c2ccccc2[N+](=O)[O-])[C@]1(Cl)[N+](=O)[O-]` (relative stereo): the inhibition in data set [2] stood at 69%; in data set [3] it was 84%.
